Data as given in patent publication US20170049843A1, “Hepatocyte Growth Factor Mimics as Therapeutic Agents” (WASHINGTON STATE UNIVERSITY, priority 2011, published 2017).
Where a SMILES comes first, the peptide text is derived from it. [ ]: non-standard residue; d: D form. The star is where a group is joined. Nle = CCCC[C@H](N)C(=O)O; Hexanoyl = CCCCCC(=O)*; Ahx = NCCCCCC(=O)O

Columns and labels:
hippocampal neurons [1] = assay: Whole-cell recordings of mEPSCs in dissociated hippocampal neurons; assay type: cell-based, rat; parameters: mean mEPSC frequency: unit not given beside the values; conditions: 5 days
c-Met receptor [2] = assay: c-Met phosphorylation in acute adult hippocampal slices; assay type: cell-based, rat; conditions: 30 minutes
Excerpt: Adult Sprague-Dawley rats (250 g+) obtained from Harlan Laboratories (Ca, USA) were anesthetized with isofluorane (Vet One™, MWI, Meridian, Id., USA) and decapitated. The brain was rapidly removed and placed into ice-chilled artificial cerebrospinal fluid (aCSF) for approximately 30 s. Both hemispheres were separated by a mid-saggital cut and both hippocampi removed. Slices were sectioned cross- and length-wise (400 μm) to ensure penetrability of the drug, using a McIlwain tissue chopper (Brinkmann, Gomshall, UK) and transferred to a gassed (95% O2/5% CO2) incubation chamber containing aCSF for 90 minutes at room temperature. Slices were transferred to fresh tubes, aCSF was removed by careful suctioning and replaced with aCSF containing vehicle (aCSF+aCSF), 100 ng/ml with carrier free adult recombinant Hepatocyte Growth Factor (HGF) (R and D Systems, MN, USA) in aCSF, 10^−10 M Hinge (Harding lab), […], 10^−10 M Dihexa (Harding lab) in aCSF, 10^−12 M Dihexa in aCSF or 50 ng/ml HGF+10^−12 M Dihexa in aCSF for 30 minutes at 37° C. with gentle rocking. aCSF was removed and the slices were lysed using RIPA buffer (Upstate/Milipore, Billerica, Mass.) and inhibitor Cocktails I and II (Sigma, St. Louis, Mo.), sonicated on ice and clarified by centrifugation for 30 minutes, 13,000 rpm at 4° C. The supernatant was removed from the pellet and stored at −80° C. or processed immediately for gel electrophoresis.
Protein concentration of the samples was quantified using the BCA method (Pierce, Rockford, Ill.) following the manufacturers protocol. Samples were added to SDS-PAGE buffer and boiled for 10 min. before loading onto a 4-12% Bis-Tris pre-cast gel (Invitrogen, Carlsbad, Calif.) for electrophoresis. Proteins were transferred onto PVDF membranes (Bio Rad, Hercules, Calif.) and blocked with AquaBlock™ (New England Biolabs, Ipswich, Mass.) for 1 hour at room temperature (RT). Primary antibody incubation was done in AquaBlock™ with rabbit anti-Met and […] phospho-Met (Tyr1234/1235) (1:1000, Cell Signaling Technology, Danvers, Mass.) overnight at 4° C. Alternating washes were done with PBS and PBST. Secondary antibody (IRDye) (Rockland, Gilbertsville, Pa.) incubations were done in AquaBlock™ for one hour at RT. Blots were imaged using LI-COR Odyssey Infrared Imaging System (LI-COR Biosciences, Lincoln, Nebr.).

c-Met receptor [3] = assay: Spinogenesis after c-Met knock-down with shRNA; assay type: cell-based, rat; conditions: 10 ng/ml HGF or 10^−12 M analog
Excerpt: (§1) Neurons were transfected with mRFP-β-actin on day in vitro 6 (DIV6) using LipofectAMINE™ 2000 (Invitrogen) according to the manufacturer's protocol. This protocol yielded the desired 3-5% transfection efficiency thus enabling the visualization of individual neurons. Higher efficiencies obscured the dendritic arbor of individual neurons. Expression of fluorescently tagged actin allowed clear visualization of dendritic spines, as dendritic spines are enriched in actin. On DIV7 the cells were treated with vehicle (H20) or peptides (as described in the text) added to media. On DIV12 the neurons were fixed (4% paraformaldehyde, 3% sucrose, 60 mM PIPES, 25 mM HEPES, 5 mM EGTA, 1 mM MgCl2, pH 7.4) for 20 min at room temperature and mounted. Slides were dried for at least 20 hours at 4° C. and fluorescent images were obtained with Slidebook 4.2 Digital Microscopy Software driving an Olympus IX81 inverted confocal microscope with a 60× oil immersion lens, NA 1.4 and resolution 0.280 μm Dendritic spine density was measured on primary and secondary dendrites at a distance of at least 150 μm from the soma. Five 50 μm long segments of dendrite from at least 10 neurons per data point were analyzed for each data point reported. Each experiment was repeated at least three times using independent culture preparations. Dendrite length was determined using the National Institutes of Health's Image J 1.41o program (NIH, Bethesda, Md.) and the neurite tracing program Neuron J (Meijering, Jacob et al. 2004) Spines were manually counted.
A target sequence for c-Met was designed using RNAi central design program (see the website located at cancan.cshl.edu/). […]. The shRNA was transfected into cells using the lipofectamine method described above. Verification of receptor knockdown was done by creating a c-Met-6-Myc tagged gene product using the Gateway cloning system (Invitrogen). The Met protein coding sequence was cloned from rat whole brain cDNA using primers obtained from Integrated DNA Technologies, Inc. The amplified product was gel purified and a band corresponding to […] band excised and cloned into a PCAGGS-6-Myc destination vector (Gateway).
To irrefutably confirm that the AngIV analogues act via the HGF/c-met system an shRNA for c-Met was employed to knock-down the receptor. Dissociated hippocampal neurons were transfected with mRFP-β-actin and shMet RNA and receptor knock-down was allowed to take place for 48 hours prior to stimulating with 0.5 μg (per well) HGF (10 ng/ml), Dihexa or Nle1-AngIV (both at 10^−12 M). Longer exposure appeared to be detrimental or toxic to the neurons. Effective c-Met receptor knock-down was verified by transfecting human embryonic kidney (HEK) cells with (0.1 μg) 6-Myc-tagged c-Met, (0.1 μg)shMet or mRFP-β-actin alone. Successful knockdown was confirmed by immunoblotting for Myc tagged c-met using an anti-Myc antibody (FIG. 19).

hippocampal neurons [4] = assay: Dendritic spine head width in hippocampal neurons; assay type: cell-based, rat; conditions: 10^−12 M; control 0.67 μm
Excerpt: as §1, with “On DIV12 the neurons were fixed (4% paraformaldehyde, 3% sucrose, 60 mM PIPES, 25 mM HEPES, 5 mM EGTA, 1 mM MgCl2, pH 7.4) for 20 min at room temperature and mounted.” left out, “Each experiment was repeated at least three times using independent culture preparations.” left out, “counted. […]” for “counted.”

hippocampal neurons [5] = assay: Protection of hippocampal neurons from oxidative stress (H2O2); assay type: cell-based; conditions: 100 μM H2O2, 24 hrs, +/− HGF sub-threshold
Method: FIG. 47. […] Dissociated hippocampal neurons were treated with 100 μM H2O2 for 24 hrs+/−HGF at sub-threshold concentrations […] and or Dihexa at 2 different concentrations 10^−8M and 10^−8M. (+p<0.05, ++p<0.0I; Mean+/−SEM).

[6] = 10^−12 M Dihexa or 10 ng/ml HGF, control 3.55±0.60
[7] = Hinge 10^−12 M, HGF 10 ng/ml, Dihexa 10^−12 M, alone or combined, vehicle 5.31±0.35
[8] = non-saturating doses: HGF 50 ng/ml, Dihexa 10^−12 M
[9] = saturating doses: HGF 100 ng/ml, Dihexa 10^−10 M
[10] = neurons transfected with mRFP-β-actin alone, 48 hours, control 13.2
[11] = neurons transfected with mRFP-β-actin and shMet, control 13.5

Molecule	mean mEPSC frequency (hippocampal neurons [1]; [6])	mean mEPSC frequency (hippocampal neurons [1]; [7])	c-Met phosphorylation vs control (aCSF) (c-Met receptor [2]; [8])	c-Met phosphorylation vs control (aCSF) (c-Met receptor [2]; [9])	mean spine numbers per 50 μm dendrite length (c-Met receptor [3]; [10])	mean spine numbers per 50 μm dendrite length (c-Met receptor [3]; [11])	average spine head width (hippocampal neurons [4])	protection of neurons from oxidative stress (hippocampal neurons [5])	mean frequency of AMPA-mediated mEPSCs (hippocampal neurons [1]; 10-12 M, vehicle 3.06±0.23 Hz)
HGF: recombinant hepatocyte growth factor (R&D Systems), ligand of c-Met	7.09±0.53	9.66±0.20	not statistically different from control treated slices	increased c-Met phosphorylation	20.6	12.4			
CCCCCC(=O)N[C@@H](Cc1ccc(O)cc1)C(=O)N[C@H](C(=O)NCCCCCC(N)=O)[C@@H](C)CC [Dihexa, N-hexanoic-Tyr-Ile-(6)-aminohexanoic amide] (Hexanoyl-Tyr-Ile-[Ahx]-NH2)	6.75±0.99	8.25±0.56	not statistically different from control treated slices	increased c-Met phosphorylation	21.8	12.0	0.80 μm	protects neurons from oxidative stress	
CCCC[C@H](N)C(=O)N[C@@H](Cc1ccc(O)cc1)C(=O)N[C@H](C(=O)N[C@@H](Cc1c[nH]cn1)C(=O)N1CCC[C@H]1C(=O)N[C@@H](Cc1ccccc1)C(=O)O)[C@@H](C)CC [Nle1-AngIV, reference compound] (H-[Nle]YIHPF-OH; N-terminus and C-terminus assumed)					20.0	12.1	0.87 μm		5.27±0.43 Hz
